The results in this text go back to US11332463B2, “Spiropiperidine allosteric modulators of nicotinic acetylcholine receptors” (Merck Sharp & Dohme Corp., priority 2018, dated 2022).

The assay deals with T1, human α7 nicotinic acetylcholine receptor (HEK cell line stably expressing human RIC-3 and human α7) (Homo sapiens, UniProt P36544).
T1 construct: host or cells: HEK cell line (PrecisION hnAChR α7/RIC-3)
Nature of the assay: Automated patch-clamp electrophysiology functional assay (Assay A), IonFlux HT, whole-cell population patch. The assay is classed as cell-based.

[1] abbreviates: HEK cells expressing human α7/RIC-3, test compound with or without 40 μM acetylcholine, holding potential −60 mV, room temperature, read-out: α7 nAChR Potency.
[2] abbreviates: automated patch-clamp electrophysiology functional assay (Assay A), read-out: α7 nAChR EC50.

Where two headings read alike, the source gives them in different places. A value given as a limit tells only on which side of the number the result lay.

T1 sequence (P36544 23-502): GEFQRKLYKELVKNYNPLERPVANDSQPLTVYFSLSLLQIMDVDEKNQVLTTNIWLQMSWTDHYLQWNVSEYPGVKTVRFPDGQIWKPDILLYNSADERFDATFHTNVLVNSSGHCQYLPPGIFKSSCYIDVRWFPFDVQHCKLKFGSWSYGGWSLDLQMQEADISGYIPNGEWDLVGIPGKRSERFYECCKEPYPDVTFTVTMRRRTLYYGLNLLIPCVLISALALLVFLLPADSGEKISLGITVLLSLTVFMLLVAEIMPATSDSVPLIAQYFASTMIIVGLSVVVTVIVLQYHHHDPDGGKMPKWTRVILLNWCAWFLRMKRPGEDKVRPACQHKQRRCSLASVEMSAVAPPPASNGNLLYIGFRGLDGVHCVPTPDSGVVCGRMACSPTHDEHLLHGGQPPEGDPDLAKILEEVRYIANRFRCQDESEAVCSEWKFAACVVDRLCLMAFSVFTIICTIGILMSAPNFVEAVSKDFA

For `NS(=O)(=O)N1CCC2(CC1)C(c1noc(-c3ccccc3C3CC3)n1)C2(F)F` (stereo not shown) [Example D26], the EC50 was below 100 nM under setting [1] and 13 nM under setting [2].

As to `Cc1noc(C)c1Cc1nc([C@@H]2CC23CCN(S(N)(=O)=O)CC3)no1` [Example E28], under setting [1], the EC50 was 500 to 5000 nM.

Take `CC1CCCC(c2nc([C@@H]3CC34CCN(S(N)(=O)=O)CC4)no2)C1` (mixture of isomers) [Example E7]: the EC50 reads like this: under setting [1], 500 to 5000 nM; under setting [2], 3400 nM.

On to `CCn1nc(C)cc1-c1nc([C@@H]2CC23CCN(S(N)(=O)=O)CC3)no1` [Example E21], for which the EC50 is 100 to 500 nM under setting [1] and 400 nM under setting [2].

As to `NS(=O)(=O)N1CCC2(CC1)C[C@H]2c1noc(-c2cccc(-n3nccc3C(F)(F)F)c2)n1` [Example E70], the EC50 runs as follows: under setting [1], 500 to 5000 nM; under setting [2], 2300 nM.

`NS(=O)(=O)N1CCC2(CC1)C[C@H]2c1noc(-c2ccc(F)cc2F)n1` [Example D15]: the EC50 was 500 to 5000 nM under setting [1] and 1200 nM under setting [2].

As to `Cc1ccc(C)c(-c2noc([C@@H]3C(F)(F)C34CCN(S(C)(=O)=O)CC4)n2)c1` (stereo in doubt) [Example 32, 2-[3-(2,5-Dimethylphenyl)-1,2,4-oxadiazol-5-yl]-1,1-difluoro-6-(methylsulfonyl)-6-azaspiro[2.5]octane], the EC50 was 500 to 5000 nM under setting [1] and 910 nM under setting [2].

As for `NS(=O)(=O)N1CCC2(CC1)C[C@H]2c1noc(-c2ccc3c(c2)CCCC3)n1` [Example E72], the EC50 under setting [1] is 100 to 500 nM and the EC50 under setting [2] came to 110 nM.

On to `NS(=O)(=O)N1CCC2(CC1)C[C@H]2c1nnc(-c2ccc(F)cc2C(F)(F)F)o1` [Example F1], for which the EC50 under setting [1] lay in the range of 500 to 5000 nM and the EC50 under setting [2] was 1500 nM.

In the case of `NS(=O)(=O)N1CCC2(C(F)C1)C(c1nc(-c3conc3C3CC3)no1)C2(F)F` (single isomer, unassigned) [Example I13], the EC50 runs as follows: under setting [1], 500 to 5000 nM; under setting [2], 600 nM.

Take `Cn1cc(-c2nc([C@@H]3C(F)(F)C34CCN(S(N)(=O)=O)CC4)no2)c(C(F)(F)F)n1` [Example 19, (2R)-1,1-Difluoro-2-{5-[1-methyl-3-(trifluoromethyl)-1H-pyrazol-4-yl]-1,2,4-oxadiazol-3-yl}-6-azaspiro[2.5]octane-6-sulfonamide]: the EC50 under setting [1] was 100 to 500 nM and the EC50 under setting [2] turned out to be 240 nM.

`NS(=O)(=O)N1CCC2(CC1)C[C@H]2c1noc(-c2ccccc2OC(F)F)n1` [Example D4]: the EC50 under setting [1] lay in the range of 100 to 500 nM and the EC50 under setting [2] came to 190 nM.

Turning to `NS(=O)(=O)N1CCC2(CC1)C[C@H]2c1noc(C2CC(c3ccccc3)C2)n1` (mixture of isomers) [Example E15], the EC50 under setting [1] is 500 to 5000 nM and the EC50 under setting [2] came out at 1500 nM.

Take `COc1ccc(Cl)cc1-c1noc(C2CC23CCN(S(=O)(=O)CCc2ccccc2)CC3)n1` (racemic) [Example B5]: the EC50 is 500 to 5000 nM under setting [1] and 3000 nM under setting [2].

In the case of `CNc1ncccc1-c1noc(C2CC23CCN(S(N)(=O)=O)CC3)n1` (racemic) [Example C1], the EC50 is 500 to 5000 nM under setting [1] and 3600 nM under setting [2].

As to `CC1CN(S(N)(=O)=O)CCC12CC2c1nc(-c2ccc(F)cc2C(F)(F)F)no1` (stereo not shown) [Example 6, 1-{3-[4-Fluoro-2-(trifluoromethyl)phenyl]-1,2,4-oxadiazol-5-yl}-4-methyl-6-azaspiro[2.5]octane-6-sulfonamide], the EC50 runs as follows: under setting [1], 100 to 500 nM; under setting [2], 280 nM.

As for `NS(=O)(=O)N1CCC2(CC1)C[C@H]2c1noc(-c2c(F)cccc2C(F)(F)F)n1` [Example D12], the EC50 under setting [1] is 500 to 5000 nM and the EC50 under setting [2] was determined as 1200 nM.

With `NS(=O)(=O)N1CCC2(C(F)C1)C(c1nc(-c3conc3C3CC3)no1)C2(F)F` (mixture of isomers) [Example I11], the EC50 is 500 to 5000 nM under setting [1] and 820 nM under setting [2].

As for `NS(=O)(=O)N1CCC2(CC2c2nc(-c3ccccc3)no2)C(F)(F)C1` (single isomer, unassigned) [Example I3], the EC50 runs as follows: under setting [1], 500 to 5000 nM; under setting [2], 2300 nM.
